This note sets out measurements from patent US20250194968A1, “ADMINISTRATION OF AMINOLEVULINIC ACID WITH DELAYED FLUORESCENT IMAGING TO MAP AND QUANTIFY TISSUE OXYGENATION LEVELS” (THE TRUSTEES OF DARTMOUTH COLLEGE, priority 2022, published 2025).

This assay has as its system subcutaneous human pancreatic adenocarcinoma BxPC3 tumors. Nature of the assay: PpIX delayed/immediate fluorescence imaging of subcutaneous tumors after ALA injection, with palpation. The class given is in vivo. The settings on record: nude mice with BxPC3 tumors, ALA 250 mg/kg intraperitoneal, imaged 6 hours later. The protocol:
Nude female mice were inoculated with a single subcutaneous injection of 10^6 human pancreatic adenocarcinoma BxPC3 cells, under the skin on the flank. After approximately 3 weeks of growth, animals were chosen for imaging when their tumor diameter reached approximately 8 mm in size. These nude mice were used in the imaging experiments described below.
ALA was either intraperitoneally injected (250 mg/kg) 6 hours prior to imaging, or topically applied onto a region of interest 3 hours before imaging as Ameluz (Trademark of Biofrontera AG, Leverkusen, Germany), ointment containing 10% ALA, as further described below
Images of tumor in the live mice were acquired using a highly sensitive intensified CMOS camera synchronized with a 50-mW average output power, 635 nm, modulated diode laser using 20 microsecond (μs) pulses at repetition rate of 500 hertz (Hz) providing pulsed fluorescence excitation light. […] Irradiance were measured using a power meter with a photodiode power sensor.
The intensifier of the intensified CMOS camera was directly controlled by circuitry synchronized to the laser pulses. […] Fifty laser pulse gate periods were integrated in each image frame, alternating between immediate fluorescence and delayed fluorescence for even and odd frames, respectively. […]

`NCC(=O)CCC(=O)O` [ALA, aminolevulinic acid]: the “duration of excellent tumor contrast from palpation-induced deoxygenation” value (after palpation) is “up to 5 min”. Besides, under “in some examples”, the “contrast in a pancreatic cancer model relative to surrounding normal oxygenated tissues (delayed fluorescence and DF/IF ratio)” value is 5 factor.
